Experimental data from ChEMBL document CHEMBL1201862, “PubChem BioAssay data set” (2004).
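Grown in 96-well plates, cells were treated for 48 hours with each compound at five concentrations. Insufficient inhibition: endpoint recorded as highest concentration tested. GI50 = concentration required for 50% inhibition of growth.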 Calls of active or inactive are those of the source. No stated cut-off is given here; in the data, active = GI50 up to about 1.1 µM and inactive = higher.

Assays:
Assay in all cases: DTP human tumour cell line panel, 48 h
A549 = test system: A549
BT-549 = test system: BT-549
EKVX = test system: EKVX
LOX IMVI = test system: LOX IMVI
M14 = test system: M14
MCF7 = test system: MCF7
MOLT-4 = test system: MOLT-4
Malme-3M = test system: Malme-3M
OVCAR-8 = test system: OVCAR-8
RPMI-8226 = test system: RPMI-8226
RXF 393 = test system: RXF 393
SF-268 = test system: SF-268
SF-295 = test system: SF-295
SK-MEL-2 = test system: SK-MEL-2
SK-OV-3 = test system: SK-OV-3
SNB-19 = test system: SNB-19
TK-10 = test system: TK-10
UACC-62 = test system: UACC-62
SK-MEL-5 = test system: SK-MEL-5
Hs-578T = test system: Hs-578T

Measured: GI50

COC(=O)[C@@]12CC3CN(Cc4c1[nH]c1ccccc41)C2CC3=O
inactive: A549 > 100 µM | BT-549 > 100 µM | EKVX > 100 µM | LOX IMVI > 100 µM | M14 > 100 µM | MCF7 > 100 µM | MOLT-4 > 100 µM | Malme-3M > 100 µM | OVCAR-8 > 100 µM | RPMI-8226 > 100 µM | RXF 393 > 100 µM | SF-268 > 100 µM | SF-295 > 100 µM | SK-MEL-2 > 100 µM | SK-OV-3 > 100 µM | SNB-19 > 100 µM | TK-10 > 100 µM | UACC-62 > 100 µM

CCOc1ccc(-n2nnc3c(N)nc(N)nc32)cc1
inactive: A549 > 100 µM | BT-549 > 100 µM | EKVX > 100 µM | LOX IMVI > 100 µM | M14 > 100 µM | MCF7 > 100 µM | MOLT-4 > 100 µM | Malme-3M > 100 µM | OVCAR-8 > 100 µM | RPMI-8226 > 100 µM | SF-295 > 100 µM | SK-MEL-2 > 100 µM | SK-MEL-5 > 100 µM | SK-OV-3 > 100 µM | SNB-19 29.1 µM | TK-10 > 100 µM | UACC-62 > 100 µM

C#CCn1c(=O)c2cc(OC)c(OC)cc2n(CC#C)c1=O
inactive: A549 > 10 µM | EKVX > 10 µM | Hs-578T > 10 µM | LOX IMVI > 10 µM | M14 > 10 µM | MCF7 > 10 µM | MOLT-4 > 10 µM | Malme-3M > 10 µM | OVCAR-8 > 10 µM | RPMI-8226 > 10 µM | RXF 393 > 10 µM | SF-268 > 10 µM | SF-295 > 10 µM | SK-MEL-2 > 10 µM | SK-MEL-5 > 10 µM | SK-OV-3 > 10 µM | SNB-19 > 10 µM | TK-10 > 10 µM

O=C(NCCn1ccnn1)Nc1ccccc1
inactive: A549 > 100 µM | BT-549 > 100 µM | EKVX > 100 µM | LOX IMVI > 100 µM | M14 > 100 µM | MCF7 > 100 µM | MOLT-4 > 100 µM | Malme-3M > 100 µM | OVCAR-8 > 100 µM | RPMI-8226 > 100 µM | SF-268 > 100 µM | SF-295 > 100 µM | SK-MEL-2 > 100 µM | SK-MEL-5 > 100 µM | SNB-19 > 100 µM | TK-10 > 100 µM

O=C1C=C(Nc2ccc(Br)cc2)c2ccccc2/C1=N/O
active: SK-MEL-5 0.989 µM
inactive: A549 1.98 µM | EKVX 35.5 µM | Hs-578T 3.2 µM | LOX IMVI 2.18 µM | M14 1.63 µM | MCF7 4.16 µM | MOLT-4 11.7 µM | Malme-3M 10.2 µM | OVCAR-8 12.1 µM | RPMI-8226 11.6 µM | RXF 393 16.4 µM | SF-268 5.6 µM | SF-295 1.54 µM | SK-MEL-2 1.5 µM | SK-OV-3 12.9 µM | SNB-19 2.5 µM | TK-10 9.1 µM | UACC-62 1.73 µM

COc1ccc(/N=N/c2ccc3oc(=O)c(C(=O)Nc4ccc(Cl)cc4)cc3c2)cc1
inactive: EKVX 6.15 µM | Hs-578T > 10 µM | LOX IMVI 9.95 µM | M14 > 10 µM | MCF7 3.17 µM | MOLT-4 7.46 µM | Malme-3M > 10 µM | OVCAR-8 > 10 µM | RPMI-8226 > 10 µM | RXF 393 > 10 µM | SF-268 3.72 µM | SF-295 > 10 µM | SK-MEL-2 > 10 µM | SK-MEL-5 > 10 µM | SK-OV-3 > 10 µM | TK-10 > 10 µM

COC(=O)CCCC(=O)NC1=C(Nc2ccccc2)C(=O)c2ccccc2C1=O
inactive: A549 19.5 µM | EKVX 24.4 µM | Hs-578T 28.7 µM | LOX IMVI 17.4 µM | M14 16.1 µM | MCF7 15.4 µM | MOLT-4 16.6 µM | Malme-3M 3.56 µM | OVCAR-8 31.9 µM | RPMI-8226 17.6 µM | SF-268 30.7 µM | SF-295 17.5 µM | SK-MEL-2 18.1 µM | SK-OV-3 22.5 µM | SNB-19 18.2 µM | TK-10 26.8 µM | UACC-62 3.27 µM

CC(=O)c1ccc(-c2oc(-c3ccccc3)cc2-c2ccc3c(c2)OCO3)s1
inactive: EKVX > 100 µM | Hs-578T > 100 µM | M14 65.3 µM | MCF7 59 µM | MOLT-4 > 100 µM | OVCAR-8 > 100 µM | RPMI-8226 > 100 µM | RXF 393 > 100 µM | SF-268 34.4 µM | SF-295 > 100 µM | SK-MEL-5 > 100 µM | SK-OV-3 > 100 µM | TK-10 > 100 µM | UACC-62 > 100 µM

Nc1nc(Cl)cc(OCC2(CO)CCCC2)n1
inactive: A549 > 100 µM | EKVX 91.4 µM | Hs-578T > 100 µM | LOX IMVI > 100 µM | MCF7 > 100 µM | MOLT-4 > 100 µM | Malme-3M > 100 µM | OVCAR-8 > 100 µM | RPMI-8226 > 100 µM | RXF 393 79.8 µM | SF-268 > 100 µM | SF-295 > 100 µM | SK-MEL-5 > 100 µM | SNB-19 > 100 µM | TK-10 > 100 µM

CC(C)(C)OC(=O)Nc1cc(-c2ccccc2)co1
inactive: A549 78.2 µM | BT-549 79.8 µM | EKVX > 100 µM | LOX IMVI > 100 µM | M14 > 100 µM | MCF7 83.8 µM | MOLT-4 33.8 µM | OVCAR-8 > 100 µM | RPMI-8226 41.1 µM | SF-268 22.7 µM | SF-295 > 100 µM | SK-MEL-2 71.1 µM | SK-MEL-5 96.8 µM | SK-OV-3 > 100 µM | SNB-19 > 100 µM | TK-10 > 100 µM | UACC-62 > 100 µM

Cc1nc2c(O)cc3c4c([nH]c3c2nc1C)C(=O)CCC4
active: MCF7 0.875 µM | RXF 393 0.162 µM
inactive: A549 2.4 µM | EKVX 6.37 µM | Hs-578T 2.62 µM | LOX IMVI 2.29 µM | M14 3.35 µM | MOLT-4 4.91 µM | Malme-3M 8.93 µM | OVCAR-8 2.65 µM | RPMI-8226 2.24 µM | SF-268 2.96 µM | SF-295 5.08 µM | SK-MEL-2 2.59 µM | SK-MEL-5 4.76 µM | SK-OV-3 3.76 µM | SNB-19 9.42 µM | TK-10 3.4 µM | UACC-62 3.66 µM

COC(=O)C[C@@H]1C(C)(C)[C@@H]2O[C@@]34C[C@@H]2C(=O)[C@]1(C)[C@H]3CC[C@@]1(C)[C@H](c2ccoc2)OC(=O)C[C@]14O
inactive: A549 > 100 µM | BT-549 > 100 µM | EKVX > 100 µM | LOX IMVI > 100 µM | M14 > 100 µM | MCF7 > 100 µM | MOLT-4 > 100 µM | Malme-3M > 100 µM | OVCAR-8 > 100 µM | RPMI-8226 > 100 µM | SF-268 > 100 µM | SF-295 > 100 µM | SK-MEL-2 > 100 µM | SK-MEL-5 > 100 µM | SK-OV-3 > 100 µM | SNB-19 71.6 µM | TK-10 > 100 µM | UACC-62 > 100 µM
